Measured values from ChEMBL document CHEMBL1800055, “Orally active MMP-1 sparing α-tetrahydropyranyl and α-piperidinyl sulfone matrix metalloproteinase (MMP) inhibitors with efficacy in cancer, arthritis, and cardiovascular disease” (J Med Chem, 2010).

Assays:
Rattus norvegicus [1] = test: Plasma concentration in rat at 20 mg/kg, po; format: ADME, organism-based; design: dose 20 mg/kg, route oral; settings: in vivo; also: time not given here
[2] = Oral bioavailability in rat at 20 mg/kg; format: ADME, organism-based; settings: in vivo
Stromelysin-1 = Stromelysin-1 (Homo sapiens, UniProt P08254)
Chain of Stromelysin-1 (P08254 whole entry): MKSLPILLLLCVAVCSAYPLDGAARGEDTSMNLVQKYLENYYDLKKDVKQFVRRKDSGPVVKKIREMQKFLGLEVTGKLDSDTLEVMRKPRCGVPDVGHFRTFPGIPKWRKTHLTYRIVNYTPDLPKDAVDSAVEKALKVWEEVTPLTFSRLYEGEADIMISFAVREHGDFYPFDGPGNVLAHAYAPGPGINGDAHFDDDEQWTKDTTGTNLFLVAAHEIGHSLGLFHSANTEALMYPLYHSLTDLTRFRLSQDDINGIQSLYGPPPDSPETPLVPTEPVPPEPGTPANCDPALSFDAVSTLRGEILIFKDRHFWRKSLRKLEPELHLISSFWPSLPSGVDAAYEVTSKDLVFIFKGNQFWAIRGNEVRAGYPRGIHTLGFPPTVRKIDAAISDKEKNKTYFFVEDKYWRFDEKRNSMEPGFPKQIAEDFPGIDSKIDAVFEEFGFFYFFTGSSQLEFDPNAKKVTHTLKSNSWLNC

Neutrophil collagenase = Neutrophil collagenase (Homo sapiens, UniProt P22894)
Chain of Neutrophil collagenase (P22894 whole entry): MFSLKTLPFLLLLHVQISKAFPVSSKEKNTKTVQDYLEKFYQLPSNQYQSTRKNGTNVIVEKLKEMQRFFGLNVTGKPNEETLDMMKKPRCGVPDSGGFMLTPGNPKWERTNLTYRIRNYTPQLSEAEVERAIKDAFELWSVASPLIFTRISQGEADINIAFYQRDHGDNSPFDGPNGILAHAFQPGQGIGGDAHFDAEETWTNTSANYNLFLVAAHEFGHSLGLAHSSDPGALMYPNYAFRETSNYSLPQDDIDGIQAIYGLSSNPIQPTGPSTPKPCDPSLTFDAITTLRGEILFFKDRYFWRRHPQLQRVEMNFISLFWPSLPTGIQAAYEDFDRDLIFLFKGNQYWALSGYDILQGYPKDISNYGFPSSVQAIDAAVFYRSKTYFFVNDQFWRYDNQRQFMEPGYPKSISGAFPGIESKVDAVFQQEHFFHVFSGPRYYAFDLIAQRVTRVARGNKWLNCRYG

[3] = Half life in rat at 20 mg/kg, po; format: ADME, organism-based; design: dose 20 mg/kg, route oral; settings: in vivo
Interstitial collagenase = target: T1, Interstitial collagenase (Homo sapiens, UniProt P03956); format: cell-based, HT-1080
T1 sequence (P03956 whole entry): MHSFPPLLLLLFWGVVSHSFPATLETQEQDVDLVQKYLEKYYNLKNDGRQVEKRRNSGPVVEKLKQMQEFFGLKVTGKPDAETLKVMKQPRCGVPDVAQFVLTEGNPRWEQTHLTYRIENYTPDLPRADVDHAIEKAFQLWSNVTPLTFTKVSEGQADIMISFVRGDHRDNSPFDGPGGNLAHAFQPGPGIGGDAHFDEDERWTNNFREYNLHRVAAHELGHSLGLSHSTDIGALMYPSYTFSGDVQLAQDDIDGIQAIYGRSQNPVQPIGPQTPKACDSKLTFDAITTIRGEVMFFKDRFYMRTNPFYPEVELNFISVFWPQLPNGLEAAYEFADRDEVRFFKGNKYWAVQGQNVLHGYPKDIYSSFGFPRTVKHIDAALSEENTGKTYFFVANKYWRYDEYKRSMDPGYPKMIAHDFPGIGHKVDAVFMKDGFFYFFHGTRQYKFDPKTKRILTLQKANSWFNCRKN

[4] = target: 72 kDa type IV collagenase (Homo sapiens, UniProt P08253)
Chain of 72 kDa type IV collagenase (P08253 whole entry): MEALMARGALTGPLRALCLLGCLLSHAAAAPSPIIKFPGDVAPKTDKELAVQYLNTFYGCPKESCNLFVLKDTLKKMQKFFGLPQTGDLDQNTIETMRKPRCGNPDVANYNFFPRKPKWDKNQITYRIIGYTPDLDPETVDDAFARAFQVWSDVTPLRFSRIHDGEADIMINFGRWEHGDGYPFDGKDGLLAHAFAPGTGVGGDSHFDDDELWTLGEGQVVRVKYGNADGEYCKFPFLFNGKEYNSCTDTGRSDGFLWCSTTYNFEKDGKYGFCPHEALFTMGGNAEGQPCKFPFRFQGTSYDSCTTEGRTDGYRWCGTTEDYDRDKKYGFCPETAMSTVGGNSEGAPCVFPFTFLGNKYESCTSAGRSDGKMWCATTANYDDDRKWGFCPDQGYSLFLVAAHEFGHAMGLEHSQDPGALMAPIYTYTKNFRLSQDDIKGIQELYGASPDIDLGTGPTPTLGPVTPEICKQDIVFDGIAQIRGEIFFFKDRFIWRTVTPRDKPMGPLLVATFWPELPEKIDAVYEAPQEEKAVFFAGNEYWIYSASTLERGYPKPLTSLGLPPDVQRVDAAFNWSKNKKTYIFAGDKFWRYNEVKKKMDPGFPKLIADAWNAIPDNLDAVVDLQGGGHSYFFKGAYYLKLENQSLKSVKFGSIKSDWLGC

Collagenase 3 = Collagenase 3 (Homo sapiens, UniProt P45452)
[5] = Cmax in rat at 20 mg/kg, po; format: ADME, organism-based; design: dose 20 mg/kg, route oral; settings: in vivo
[6] = target: Matrix metalloproteinase-9 (Homo sapiens, UniProt P14780)
Chain of Matrix metalloproteinase-9 (P14780 whole entry): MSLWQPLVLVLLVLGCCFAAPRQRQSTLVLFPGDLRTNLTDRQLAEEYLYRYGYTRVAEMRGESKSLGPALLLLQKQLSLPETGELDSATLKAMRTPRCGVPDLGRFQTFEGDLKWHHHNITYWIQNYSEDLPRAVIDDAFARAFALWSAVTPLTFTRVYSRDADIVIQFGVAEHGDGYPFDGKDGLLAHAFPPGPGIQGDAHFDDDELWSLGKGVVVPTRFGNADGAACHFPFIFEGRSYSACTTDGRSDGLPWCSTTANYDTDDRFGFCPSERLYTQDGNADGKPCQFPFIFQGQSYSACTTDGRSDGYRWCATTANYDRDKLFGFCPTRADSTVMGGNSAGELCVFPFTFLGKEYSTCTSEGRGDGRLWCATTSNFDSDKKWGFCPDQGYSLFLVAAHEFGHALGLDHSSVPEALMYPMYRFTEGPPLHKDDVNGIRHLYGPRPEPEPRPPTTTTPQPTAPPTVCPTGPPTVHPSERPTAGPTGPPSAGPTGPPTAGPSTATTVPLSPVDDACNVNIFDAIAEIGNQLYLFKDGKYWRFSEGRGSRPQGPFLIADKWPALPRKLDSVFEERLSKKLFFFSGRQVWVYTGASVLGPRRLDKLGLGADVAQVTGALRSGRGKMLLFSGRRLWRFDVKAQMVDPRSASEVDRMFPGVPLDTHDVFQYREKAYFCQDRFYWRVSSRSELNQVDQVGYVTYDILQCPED

Rattus norvegicus [7] = test: Plasma concentration in rat at 10 mg/mL, iv and po; format: ADME, organism-based; settings: in vivo; also: time not given here
[8] = Half life in rat at 10 mg/mL, iv and po; format: ADME, organism-based; settings: in vivo
[9] = Cmax in rat at 10 mg/mL, iv and po; format: ADME, organism-based; settings: in vivo
[10] = Oral bioavailability in rat at 10 mg/mL; format: ADME, organism-based; settings: in vivo

C#CCN1CCC(C(=O)NO)(S(=O)(=O)c2ccc(Oc3ccc(OC)cc3)cc2)CC1
Cp (Rattus norvegicus [1]): 192 ng/mL | bioavailability [2]: 36.9% | IC50 (Stromelysin-1): 0.2 nM | IC50 (Neutrophil collagenase): 10 nM | half-life [3]: 60.6 min

O=C(NO)C1(S(=O)(=O)c2ccc(Oc3ccc4c(c3)OCO4)cc2)CCN(C2CC2)CC1
IC50 (Interstitial collagenase): 1 µM | Cp (Rattus norvegicus [1]): 206 ng/mL | IC50 [4]: 0.5 nM | IC50 (Collagenase 3): 0.3 nM | Cmax [5]: 13100 ng/mL | IC50 [6]: < 0.1 nM

O=C(NO)C1(S(=O)(=O)c2ccc(Oc3ccc(Cl)cc3)cc2)CCOCC1
Cp (Rattus norvegicus [7]): 506 ng/mL | half-life [8]: 90 min | IC50 (Stromelysin-1): 18.1 nM | IC50 (Neutrophil collagenase): 1.2 nM | Cmax [9]: 3120 ng/mL | bioavailability [10]: 45.8%

CCOc1ccc(Oc2ccc(S(=O)(=O)C3(C(=O)NO)CCN(C4CC4)CC3)cc2)cc1
IC50 (Interstitial collagenase): 1 µM | IC50 [4]: 0.1 nM | IC50 (Collagenase 3): 0.25 nM | IC50 [6]: 0.2 nM

CCOCCN1CCC(C(=O)NO)(S(=O)(=O)c2ccc(Oc3ccc(OC(F)(F)F)cc3)cc2)CC1
IC50 (Interstitial collagenase): 5.9 µM | Cp (Rattus norvegicus [1]): 3040 ng/mL | bioavailability [2]: 14.7% | Cmax [5]: 3130 ng/mL | half-life [3]: 99.6 min

C#CCN1CCC(C(=O)NO)(S(=O)(=O)c2ccc(Oc3ccc4c(c3)OCO4)cc2)CC1
IC50 (Interstitial collagenase): 2 µM | Cp (Rattus norvegicus [1]): 134 ng/mL | bioavailability [2]: 30.1% | IC50 (Collagenase 3): 0.6 nM | IC50 (Stromelysin-1): 18.1 nM | IC50 (Neutrophil collagenase): 1.3 nM | half-life [3]: 50.6 min

O=C(NO)C1(S(=O)(=O)c2ccc(Oc3ccc4c(c3)OCO4)cc2)CCNCC1
Cp (Rattus norvegicus [1]): 128 ng/mL | IC50 (Stromelysin-1): 35 nM | Cmax [5]: 1550 ng/mL | IC50 (Neutrophil collagenase): 2.4 nM

CSc1ccc(Oc2ccc(S(=O)(=O)C3(C(=O)NO)CCOCC3)cc2)cc1
IC50 (Interstitial collagenase): 2.5 µM | IC50 [4]: < 0.1 nM | IC50 (Collagenase 3): < 0.1 nM | IC50 [6]: < 0.1 nM

COCCN1CCC(C(=O)NO)(S(=O)(=O)c2ccc(Oc3ccc(OC(C)C)cc3)cc2)CC1
IC50 (Interstitial collagenase): 2 µM | IC50 [4]: 0.3 nM | IC50 (Collagenase 3): 0.5 nM

CC(C)N1CCC(C(=O)NO)(S(=O)(=O)c2ccc(Oc3ccc(C(F)(F)F)cc3)cc2)CC1
IC50 (Interstitial collagenase): > 10 µM | Cp (Rattus norvegicus [1]): 429 ng/mL | bioavailability [2]: 48.3% | IC50 [4]: 0.3 nM | IC50 (Collagenase 3): 5.5 nM | IC50 (Stromelysin-1): 40 nM | Cmax [5]: 5120 ng/mL | IC50 (Neutrophil collagenase): 1.4 nM | half-life [3]: 125 min

O=C(NO)C1(S(=O)(=O)c2ccc(Oc3cccc(C(F)(F)F)c3)cc2)CCOCC1
IC50 (Interstitial collagenase): > 10 µM | Cp (Rattus norvegicus [7]): 257 ng/mL | half-life [8]: 67.2 min | IC50 [4]: 0.8 nM | IC50 (Collagenase 3): 0.8 nM | IC50 (Stromelysin-1): 55.3 nM | IC50 (Neutrophil collagenase): 30 nM | Cmax [9]: 1140 ng/mL | bioavailability [10]: 18.3%

O=C(NO)C1(S(=O)(=O)c2ccc(Oc3ccc4c(c3)OCCO4)cc2)CCN(C2CC2)CC1
IC50 (Interstitial collagenase): 6 µM | Cp (Rattus norvegicus [1]): 15 ng/mL | bioavailability [2]: 16.6% | IC50 [4]: 0.2 nM | IC50 (Collagenase 3): 0.5 nM | IC50 (Stromelysin-1): 21.5 nM | Cmax [5]: 9460 ng/mL | IC50 (Neutrophil collagenase): 1.5 nM | half-life [3]: 198 min

CC(C)N1CCC(C(=O)NO)(S(=O)(=O)c2ccc(Oc3ccc(OC(F)(F)F)cc3)cc2)CC1
IC50 (Interstitial collagenase): > 10 µM | IC50 [4]: < 0.1 nM | IC50 (Collagenase 3): < 0.1 nM | IC50 (Neutrophil collagenase): 0.4 nM | IC50 [6]: < 0.1 nM

O=C(NO)C1(S(=O)(=O)c2ccc(Oc3ccc(OC(F)(F)F)cc3)cc2)CCN(CCO)CC1
IC50 (Interstitial collagenase): 4.5 µM | Cp (Rattus norvegicus [1]): 570 ng/mL | bioavailability [2]: 21.9% | IC50 [4]: < 0.1 nM | IC50 (Collagenase 3): < 0.1 nM | Cmax [5]: 1380 ng/mL | half-life [3]: 83.4 min

O=C(NO)C1(S(=O)(=O)c2ccc(Oc3ccccc3)cc2)CCOCC1
Cp (Rattus norvegicus [7]): 50 ng/mL | half-life [8]: 104 min | IC50 [4]: 0.1 nM | IC50 (Collagenase 3): 0.1 nM | IC50 (Stromelysin-1): 7 nM | IC50 (Neutrophil collagenase): 0.4 nM | Cmax [9]: 872 ng/mL | bioavailability [10]: 5.8%

C#CCN1CCC(C(=O)NO)(S(=O)(=O)c2ccc(Oc3ccc(OC(F)(F)F)cc3)cc2)CC1
IC50 (Interstitial collagenase): 2.6 µM | IC50 [4]: < 0.1 nM | IC50 (Collagenase 3): 0.2 nM | IC50 [6]: < 0.1 nM

COCCN1CCC(C(=O)NO)(S(=O)(=O)c2ccc(Oc3ccc(C(C)C)cc3)cc2)CC1
IC50 (Interstitial collagenase): 10 µM | IC50 [4]: 0.1 nM | IC50 (Collagenase 3): 0.2 nM

CC(C)Oc1ccc(Oc2ccc(S(=O)(=O)C3(C(=O)NO)CCN(C4CC4)CC3)cc2)cc1
IC50 (Interstitial collagenase): 0.77 µM | IC50 [4]: 0.1 nM | IC50 (Collagenase 3): 0.1 nM

O=C(NO)C1(S(=O)(=O)c2ccc(Oc3ccc(-c4ccccc4)cc3)cc2)CCOCC1
IC50 (Interstitial collagenase): 1.4 µM | IC50 [4]: 0.1 nM | IC50 (Collagenase 3): 0.25 nM | IC50 (Stromelysin-1): 50 nM | IC50 (Neutrophil collagenase): 2.4 nM

CC(C)c1ccc(Oc2ccc(S(=O)(=O)C3(C(=O)NO)CCN(C(C)C)CC3)cc2)cc1
IC50 (Interstitial collagenase): > 10 µM | IC50 [4]: 1 nM | IC50 (Collagenase 3): 2.7 nM | IC50 (Stromelysin-1): 22.5 nM | IC50 (Neutrophil collagenase): 1.8 nM

O=C(NO)C1(S(=O)(=O)c2ccc(Oc3ccc(SC(F)(F)F)cc3)cc2)CCOCC1
IC50 (Interstitial collagenase): 5 µM | Cp (Rattus norvegicus [7]): 3113 ng/mL | half-life [8]: 103 min | IC50 [4]: 0.4 nM | IC50 (Neutrophil collagenase): 0.4 nM | Cmax [9]: 7270 ng/mL | bioavailability [10]: 49%

O=C(NO)C1(S(=O)(=O)c2ccc(Oc3ccncc3)cc2)CCOCC1
Cp (Rattus norvegicus [7]): 3 ng/mL | half-life [8]: 15 min | IC50 [4]: 0.5 nM | Cmax [9]: 1610 ng/mL | bioavailability [10]: 42.3%

O=C(NO)C1(S(=O)(=O)c2ccc(Oc3ccc(Cl)c(Cl)c3)cc2)CCOCC1
IC50 (Stromelysin-1): 35 nM | IC50 (Neutrophil collagenase): 4 nM

O=C(NO)C1(S(=O)(=O)c2ccc(Oc3ccc(OC(F)(F)F)cc3)cc2)CCNCC1
IC50 (Interstitial collagenase): 10 µM | Cp (Rattus norvegicus [1]): 223 ng/mL | bioavailability [2]: 6.7% | IC50 [4]: < 0.1 nM | IC50 (Collagenase 3): 0.1 nM | Cmax [5]: 630 ng/mL | IC50 (Neutrophil collagenase): 0.7 nM | half-life [3]: 107 min

CCN1CCC(C(=O)NO)(S(=O)(=O)c2ccc(Oc3ccc(C(F)(F)F)cc3)cc2)CC1
IC50 (Interstitial collagenase): > 10 µM | IC50 [4]: 0.2 nM | IC50 (Collagenase 3): 0.6 nM | IC50 (Stromelysin-1): 36.9 nM | IC50 (Neutrophil collagenase): 1.4 nM

COc1ccc(Oc2ccc(S(=O)(=O)C3(C(=O)NO)CCN(Cc4ccccn4)CC3)cc2)cc1
IC50 (Interstitial collagenase): 4.5 µM | Cp (Rattus norvegicus [1]): 160 ng/mL | IC50 [4]: 0.2 nM | IC50 (Collagenase 3): 0.3 nM | IC50 (Stromelysin-1): 20.6 nM | IC50 (Neutrophil collagenase): 1.9 nM

O=C(NO)C1(S(=O)(=O)c2ccc(Oc3ccc(C(F)(F)F)cc3)cc2)CCN(CCN2CCOCC2)CC1
Cp (Rattus norvegicus [1]): 73 ng/mL | bioavailability [2]: 2.6% | IC50 [4]: 0.3 nM | IC50 (Collagenase 3): 0.35 nM | Cmax [5]: 147 ng/mL | half-life [3]: 56.4 min

CN1CCC(C(=O)NO)(S(=O)(=O)c2ccc(Oc3ccc(OC(F)(F)F)cc3)cc2)CC1
IC50 (Interstitial collagenase): > 10 µM | IC50 [4]: < 0.1 nM | IC50 (Collagenase 3): 0.6 nM | IC50 [6]: 0.18 nM

C#CCN1CCC(C(=O)NO)(S(=O)(=O)c2ccc(Oc3ccc(C(C)C)cc3)cc2)CC1
IC50 (Interstitial collagenase): > 10 µM | Cp (Rattus norvegicus [1]): 21 ng/mL | bioavailability [2]: 23.8% | IC50 [4]: 0.1 nM | IC50 (Collagenase 3): 0.25 nM | IC50 (Stromelysin-1): 32.6 nM | Cmax [5]: 5310 ng/mL | IC50 (Neutrophil collagenase): 1.6 nM | half-life [3]: 43.8 min
